Assay results reported in PubChem BioAssay AID1963873 (Molecular Pharmacology Branch, DTP, NCI, 2024).

System: 276233-004-R-J1-PDC KRAS spheroids with HUVEC/MSC, viability
Assay: Anticancer human tumor 276233-004-R-J1-PDC patient-derived colon adenocarcinoma cell line growth inhibition [KRAS2]
Conditions: for IC50: curve of first compound; for viability, T/C: stronger effect = lower value
Source text: Multicellular complex tumor spheroid response to RAS pathway inhibitors in combination with a targeted agents in patient-derived cell lines with oncogenic KRAS variants from multiple cancer types
A high-throughput screen of multi-cell type tumor spheroids was designed to identify active combinations of targeted small molecules and KRAS pathway inhibitors. Complex spheroids include a stromal component modeled by human endothelial cells (HUVEC) and fibroblasts modeled by human mesenchymal stem cells (MSCs). The concentration ranges selected for each drug and investigational agent were based upon clinically achievable concentrations if the clinical Cmax of the agent was known.
Compounds. The drugs and investigational agents: BI-3406 (NSC825286), BAY-293 (NSC824723), batoprotafib (TNO155; NSC825523), sotorasib (AMG 510; NSC818433), MRTX1257 (NSC819558), elimusertib (BAY 1895344; NSC800525), molibresib (GSK525762; NSC774829), temuterkib (LY3214996; NSC803410), venetoclax (NSC766270), alisertib (NSC759677), olaparib (NSC753686), talazoparib (NSC767125), erdafitinib (NSC781556), ipatasertib (NSC767898), cabozantinib (NSC761068), nintedanib (NSC756659), abemaciclib (NSC768073), docetaxel (NSC628503), trametinib (NSC758246), and sapanisertib (NSC764658) were obtained from the National Cancer Institute (NCI) Developmental Therapeutics Program Chemical Repository. The FDA-approved anticancer drug set is available from the Developmental Therapeutics Program. […] The stock solutions were prepared in dimethyl sulfoxide (DMSO, Sigma-Aldrich, St. Louis, MO, cat. D2650) at 800-fold the tested concentration and stored at -70 degrees C prior to their use. All drugs and investigational agents were tested over a range starting from a high concentration at or near the clinical Cmax and decreasing in half-log increments. If the clinical Cmax for an agent had not been determined, the highest concentration tested was 10 microM.
Cell Culture. All cells were maintained in an incubator at 37 degrees C and 5% CO2 with 95% humidity. The PDC lines were cultured according to standard operating procedures established by the NCI PDMR (https://pdmr.cancer.gov/sops/default.htm). Briefly, all PDCs were thawed and cultured in Matrigel-coated flasks prepared with a working solution of 1X Ham's F-12 nutrient mix, without supplementation (Invitrogen, Waltham, MA, cat. 11765054), 100 U/mL penicillin-streptomycin (Invitrogen, cat. 15140122), and 2.5% Matrigel (Corning Inc., Corning, NY, cat. 354248) for the first three passages. All PDCs were cultured in complete DMEM/F-12 media containing advanced DMEM/F-12 (Invitrogen, cat. 12634028), 4.9% defined fetal bovine serum, heat inactivated (HyClone Laboratories Inc., Logan, UT, cat. SH30070.03HI), 389 ng/mL hydrocortisone (Sigma-Aldrich, cat. H4001), 9.7 ng/mL human EGF recombinant protein (Invitrogen, cat. PHG0313), 23.4 microg/mL adenine (Sigma-Aldrich, cat. A2786), 97.3 U/mL penicillin-streptomycin (Invitrogen, cat. 15140122), 1.9 mM L-glutamine (Invitrogen, cat. 25030081), and 9.7 microM Y-27632 dihydrochloride (Tocris Bioscience, Bristol, United Kingdom, cat. 1254). The PDCs were cultured in complete DMEM/F12 media without 9.7 microM Y-27632 dihydrochloride for at least two passages prior to the screen. The established cell line HOP-62 was cultured in RPMI 1640 medium, HEPES (Invitrogen, cat. 22400105) with 10% defined fetal bovine serum (HyClone Laboratories Inc., cat. SH30070.03) and 2 mM L-glutamine (Invitrogen, cat. 25030081). The pooled donor HUVEC were cultured in endothelial cell growth medium 2 (PromoCell, Heidelberg, Germany, cat. C-22011) and the hMSC were cultured in mesenchymal stem cell growth medium 2 (PromoCell, cat. C-28009). For all experiments, HUVEC and hMSC were used at passages </=5, while the malignant cell lines were used at passages </=15. […]

[1] = second compound 0.1 µM, first compound 0.0316 µM
[2] = second compound 0.1 µM, first compound 0.1 µM
[3] = second compound 0.316 µM, first compound 0.0316 µM
[4] = second compound 0.316 µM, first compound 0.1 µM
[5] = second compound 1 µM, first compound 0.0316 µM
[6] = second compound 1 µM, first compound 0.1 µM
[7] = second compound 3.16 µM, first compound 0.0316 µM
[8] = second compound 3.16 µM, first compound 0.1 µM
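Further: cells exposed to agents for seven days before viability read.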
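Wherever viability, T/C is given: 100% = DMSO vehicle control wells and lower values mean fewer viable cells.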

In the case of `Cn1ncnc1[C@H]1c2n[nH]c(=O)c3cc(F)cc(c23)N[C@@H]1c1ccc(F)cc1` + C=CC(=O)N1CCN(c2nc(OCC3CCCN3C)nc3c2CCN(c2cccc4cccc(C)c24)C3)CC1CC#N, the IC50 (second compound 0.0316 µM) is reported as over 0.1 µM, the IC50 (second compound 0.1 µM) is reported as over 0.1 µM and the IC50 (second compound 0.316 µM) is reported as over 0.1 µM. The IC50 (second compound 1 µM) was over 0.1 µM, the IC50 (second compound 3.16 µM) was over 0.1 µM and the viability, T/C (second compound 0.0316 µM, first compound 0.000316 µM) was 111%. It also gave a viability, T/C (second compound 0.0316 µM, first compound 0.001 µM) of 107%, a viability, T/C (second compound 0.0316 µM, first compound 0.00316 µM) of 88% and a viability, T/C (second compound 0.0316 µM, first compound 0.01 µM) of 119%. For the same compound, the viability, T/C (second compound 0.0316 µM, first compound 0.0316 µM) was 97.7%, the viability, T/C (second compound 0.0316 µM, first compound 0.1 µM) was 92.8% and the viability, T/C (second compound 0.1 µM, first compound 0.000316 µM) was 107%. For the same compound, the viability, T/C (second compound 0.1 µM, first compound 0.001 µM) was 113%, the viability, T/C (second compound 0.1 µM, first compound 0.00316 µM) was 103% and the viability, T/C (second compound 0.1 µM, first compound 0.01 µM) was 98%. The viability, T/C [1] was 77.3%, the viability, T/C [2] was 86.3% and the viability, T/C (second compound 0.316 µM, first compound 0.000316 µM) was 100%. It also gave a viability, T/C (second compound 0.316 µM, first compound 0.001 µM) of 107%, a viability, T/C (second compound 0.316 µM, first compound 0.00316 µM) of 113% and a viability, T/C (second compound 0.316 µM, first compound 0.01 µM) of 115%. The viability, T/C [3] was 85.5%, the viability, T/C [4] was 91.6% and the viability, T/C (second compound 1 µM, first compound 0.000316 µM) was 99%. For the same compound, the viability, T/C (second compound 1 µM, first compound 0.001 µM) was 118%, the viability, T/C (second compound 1 µM, first compound 0.00316 µM) was 105% and the viability, T/C (second compound 1 µM, first compound 0.01 µM) was 116%. The viability, T/C [5] was 88.9%, the viability, T/C [6] was 110% and the viability, T/C (second compound 3.16 µM, first compound 0.000316 µM) was 74.9%. It also gave a viability, T/C (second compound 3.16 µM, first compound 0.001 µM) of 77.6%, a viability, T/C (second compound 3.16 µM, first compound 0.00316 µM) of 57.1% and a viability, T/C (second compound 3.16 µM, first compound 0.01 µM) of 52.6%. For the same compound, the viability, T/C [7] was 65% and the viability, T/C [8] was 72%.
For `Cn1nccc1Nc1nccc(-c2cc3c(s2)C(C)(C)N(CCN2CCOCC2)C3=O)n1` + C=CC(=O)N1CCN(c2nc(=O)n(-c3c(C)ccnc3C(C)C)c3nc(-c4c(O)cccc4F)c(F)cc23)C(C)C1, the IC50 (second compound 0.1 µM) was over 10 µM, the IC50 (second compound 0.316 µM) was over 10 µM and the IC50 (second compound 1 µM) was over 10 µM. It also gave an IC50 (second compound 3.16 µM) of over 10 µM, an IC50 (second compound 10 µM) of over 10 µM and a viability, T/C [1] of 106%. The viability, T/C [2] was 100%, the viability, T/C (second compound 0.1 µM, first compound 0.316 µM) was 83.1% and the viability, T/C (second compound 0.1 µM, first compound 1 µM) was 71.6%. The viability, T/C (second compound 0.1 µM, first compound 3.16 µM) was 69.9%, the viability, T/C (second compound 0.1 µM, first compound 10 µM) was 60.4% and the viability, T/C [3] was 114%. For the same compound, the viability, T/C [4] was 112%, the viability, T/C (second compound 0.316 µM, first compound 0.316 µM) was 101% and the viability, T/C (second compound 0.316 µM, first compound 1 µM) was 99.3%. The viability, T/C (second compound 0.316 µM, first compound 3.16 µM) was 66.2%, the viability, T/C (second compound 0.316 µM, first compound 10 µM) was 66.4% and the viability, T/C [5] was 132%. The viability, T/C [6] was 108%, the viability, T/C (second compound 1 µM, first compound 0.316 µM) was 83.1% and the viability, T/C (second compound 1 µM, first compound 1 µM) was 93.1%. The viability, T/C (second compound 1 µM, first compound 3.16 µM) was 67.6%, the viability, T/C (second compound 1 µM, first compound 10 µM) was 69.2% and the viability, T/C [7] was 97.1%. For the same compound, the viability, T/C [8] was 122%, the viability, T/C (second compound 3.16 µM, first compound 0.316 µM) was 93.1% and the viability, T/C (second compound 3.16 µM, first compound 1 µM) was 98.5%. The viability, T/C (second compound 3.16 µM, first compound 3.16 µM) was 72.2%, the viability, T/C (second compound 3.16 µM, first compound 10 µM) was 86.5% and the viability, T/C (second compound 10 µM, first compound 0.0316 µM) was 89.5%. It also gave a viability, T/C (second compound 10 µM, first compound 0.1 µM) of 85.7%, a viability, T/C (second compound 10 µM, first compound 0.316 µM) of 85.2% and a viability, T/C (second compound 10 µM, first compound 1 µM) of 72.6%. It also gave a viability, T/C (second compound 10 µM, first compound 3.16 µM) of 82.2% and a viability, T/C (second compound 10 µM, first compound 10 µM) of 105%.
